Reference: patent US20140045724A1, “FORMULATION SCREENING METHODS, APPARATUSES FOR PERFORMING SUCH METHODS AND FORMULATIONS FORMED BY SUCH METHODS” (priority 2012, published 2014)

Experiment: Kinetic gradient concentration study in water
Format: physicochemical
Conditions: CBZ gradient 0.01-0.64 w/v %
Method: CBZ-Ethanol solution was dispensed into 10 columns of wells in a 96-well microplate as follows: row A (80 μL @ 1 mg/mL; 80 μg API); row B (100 μL @ 2 mg/mL; 200 μg); row C (100 μL @ 4 mg/mL; 400 μg); row D (100 μL @ 6 mg/mL; 600 μg); row E (100 μL @ 8 mg/mL; 800 μg); row F (100 μL @ 20 mg/mL; 2 mg); row G (2×100 μL @ 20 mg/mL; 4 mg); row H (4×100 μL @ 20 mg/mL; 8 mg). Thus, a first-pass filling of the wellplate was conducted. The wellplate was placed on a centrivap and the solvent stripped at ambient temperature for ˜4 hours. The wells in rows G and H were refilled with CBZ solution, and the solvent stripped at ambient temperature for ˜1 hour, resulting in a net CBZ charge to rows G and H of 4 mg per well. This procedure was repeated twice for row H, resulting in a net CBZ charge of 8 mg per well. […] To the wells in columns 1 through 10 were charged the appropriate excipient, surfactant, and HPBCD solutions (4 mg/mL; 25 or 80 μL 5% Ethanol solution) that were previously determined in Example 1. Additional 5% Ethanol solvent was added to the wells to give 200 μL total liquid. The solvent (200 μL) was also charged to wells in column 11 (API control) and 12 (solvent only). […]
The microplate was inverted before scanning through the film on a UV-VIS microplate reader (600-900 nm, 2-nm step size; transmittance). […]

kinetically stable API concentration, sonicated microplate (sonicated wellplate): 0.02 w/v %
kinetically stable API concentration, unsonicated microplate (unsonicated wellplate): 0.02 w/v %
Structure (SMILES): NC(=O)N1c2ccccc2C=Cc2ccccc21 [control, carbamazepine]
